In patent US12102631B2, “Quinolylnitrones for the treatment and prevention of a cerebral stroke or ischaemia” (ISQUAEMIA BIOTECH, S.L., priority 2018, dated 2024):
“And” between values parts separate entries of the source, which are not always exact repeats. Equal entries are not always repeated.

How the values were obtained:
[1] = test system: primary neuronal cultures from rat cerebral cortex; assay: Neuroprotection (MTT cell viability) in primary neuronal cultures exposed to oxygen-glucose deprivation (OGD); format: cell-based; settings: Rattus norvegicus, 24 h recovery after 4 h OGD, R24 h = 0%, control = 100%
Procedure: Primary neuronal cultures. Primary neuronal cultures from rat cerebral cortex were prepared as previously described.^54 All procedures associated with animal experiments were approved by the Ethics Committee of the Hospital Ramón y Cajal, Madrid (Spain). Cell suspensions from cerebral cortex were prepared from 16- to 17-day-old Sprague-Dawley rat embryos. Living cells in cell suspension were counted by trypan blue exclusion method. Cells were seeded on plastic multidishes precoated with 0.05 mg/mL poly-D-lysine at a density of 2.5×10^5 cells/cm^2 and were kept at 37° C. in a 6.5% CO2 atmosphere in high glucose Dulbecco's medium supplemented with 15% heat-inactivated (56° C. for 30 min) foetal calf serum. After 24 h, cultured cells were […] to induce experimental ischemia.^23 Cultured cells were washed and placed in glucose-free Dulbecco's medium (bubbled with 95% N2/5% CO2 for 30 min), and maintained in a humidified hypoxia chamber equipped with an oxygen and carbon dioxide control unit (Biospherix) at 6.5% CO2 and <0.1% O2 in N2 at 37° C. Cells were exposed to OGD for a period of 4 h (OGD 4 h). At the end of the OGD period, culture medium was replaced with oxygenated serum-free medium, and cells were placed and maintained in the normoxic incubator for 24 h to recovery (R24 h). In the neuroprotection experiments, the compounds were added at the onset of recovery period. Control cultures in Dulbecco's medium containing glucose were kept in the normoxic incubator for the same period of time as the OGD, and then medium (Dulbecco's/Ham's F12, 1:1 [vol/vol], 5 mg/mL glucose, 2 mM L-glutamine, and 1 mM sodium pyruvate, and supplemented with 100 μg/mL transferrin, 100 μM putrescine, 20 nM progesterone, 30 nM sodium selenite and 5 μg/mL insulin). Here, 6-7 day old cultured neurons were used in the experiments, and contained 90% β-III-tubulin-positive mature neurons, as described previously.^55
Exposure of cell cultures to oxygen-glucose deprivation and treatments. Primary neuronal cultures were exposed to […]. Control experiments included the same amounts of vehicle (final concentration<0.5% ethanol). Nitrone 2 was used as reference compound for neuroprotection. The experimental procedures were blindly performed, assigning a random order to each assayed nitrone. Nitrones were analyzed independently four-eight times with different batch of cultures and each experiment was run in quadruplicate.
Cell viability assay. Cell viability was evaluated by quantification of living, metabolically active cells, as determined by a colorimetric assay using the photometric reduction of 3-(4,5-dimethylthiazol-2-yl)-2,5-diphenyl tetrazolium bromide (MTT) (Roche) to a blue formazan product. The assay of living, metabolically active cells was performed by incubating with 0.2 mg/mL MTT in the culture medium for 1.5 h in an incubator at 37° C. in a 6.5% CO2 atm. After the incubation period, cells were lysed with an equal volume of 10 mM HCl and 10% SDS overnight. Values were quantified by absorbance (test 595 nm, reference 690 nm). Decreased MTT activity denotes impairment of mitochondrial function and is considered to be an index of cell damage. Primary neuronal cultures were collected at times indicated for MTT determination.
Neuroprotection of compounds was evaluated by a cell viability assay. The neuroprotective effect of the compounds 5-32 was evaluated on primary neuronal cultures from cerebral cortex subjected to oxygen-glucose deprivation (OGD) to induce experimental ischemia. Afterwards, cultured neurons were placed and kept in normoxic and normoglycemic conditions to recovery. […]

[2] = test system: Carrageenan-induced rat paw edema; assay: Inhibition of Carrageenan-induced rat paw edema; format: in vivo, Fisher 344 rats; settings: 0.01 mmol/kg intraperitoneally; 3.5 h after Carrageenan
Procedure: Inhibition of the Carrageenan-induced edema. Edema was induced in the right hind paw of Fisher 344 rats (150-200 g) by the intradermal injection of 0.1 mL 2% Carrageenan in water. Both sexes were used. Females pregnant were excluded. Each group was composed of 6 animals. The experiment was performed twice for validation. The animals, which have been bred in our laboratory, were housed under standard conditions and received a diet of commercial food pellets and water ad libitum during the maintenance, but they were entirely fasted during the experiment period. Nitrone 23 as well as of the standard drug indomethacin in 0.01 mmol/kg body weight, were diluted in water with few drops of Tween 80 and ground in a mortar before use and they were given intraperitoneally simultaneously with the Carrageenan injection. The rats were euthanized 3.5 h after Carrageenan administration. The difference between the weight of the injected and uninjected paws was calculated for each animal. The change in paw weight was compared with that in control animals (treated with water/or Tween-water) and expressed as a percent inhibition of the edema % ICPE values (Table 2). Values % ICPE are the mean from two different experiments (n=6 animals each time) with a standard error of the mean less than 10%.

[3] = Interaction with the stable radical DPPH; format: biochemical; settings: tested at 100 μM; reducing activity
Procedure: Interaction of the nitrone with the Stable Radical 1,1-diphenyl-picrylhydrazyl (DPPH) To a solution of DPPH in absolute ethanol the appropriate volume of the compounds (0.1 mM final concentrations) dissolved in DMSO was added. The absorbance was recorded at 517 nm after 20 and 60 min at room temperature (Table 1).
3.1. Antioxidant activity of QNs using radical DPPH. […] This purple colour generally disappears in the presence of an antioxidant due to the reduction of the DPPH radical by single electron transfer (SET) from the antioxidant converted it to colourless/bleached product. […] In this assay, we measured the initial absorbance of DPPH and the absorbance once the potential antioxidant was added. The antioxidant activity was expressed as the percentage of reducing activity.

[4] = Inhibition of linoleic acid peroxidation (AAPH, ILPO); format: biochemical; settings: tested at 100 μM
Procedure: Inhibition of Linoleic Acid Peroxidation.^32 For initiating the free radical, 2,2′-azobis(2-amidinopropane) dihydrochloride (AAPH) is used. The final solution in the UV cuvette consisted of ten microliters of the 16 mM linoleate sodium dispersion 0.93 mL of 0.05 M phosphate buffer, pH 7.4, thermostatted at 37° C. 50 μL of 40 mM AAPH solution was added as a free radical initiator at 37° C. under air and 10 μL of the tested compounds. The oxidation of linoleic acid sodium salt results a conjugated diene hydroperoxide. The reaction is monitored at 234 nm (Table 1).
3.3. Anti-lipid peroxidation activity of QNs. The water-soluble azo compound 2,2′-azobis(2-amidinopropane) dihydrochloride (AAPH) has been extensively used as a clean and controllable source of thermally produced alkyl peroxyl free radicals through spontaneous thermal decomposition. […] In the AAPH assay to determine the inhibition of the lipid peroxidation (ILPO), the highly reactive alkylperoxyl radicals are intercepted mainly by a hydrogen atom transfer from the antioxidant. As shown, QN23 presented limited value, where QNs 19, 22 and 24 presented very high values (Table 3).

[5] = Hydroxyl radical scavenging (competition with DMSO); format: biochemical; settings: tested at 100 μM
Procedure: Hydroxyl Radicals Scavenging Activity.^32 The hydroxyl radicals were produced by the Fe^3+/ascorbic acid system. EDTA (0.1 mM), Fe^3+ (167 μM), DMSO (33 mM) in phosphate buffer (50 mM, pH 7.4), the tested compounds (0.1 mM) and ascorbic acid (10 mM) were mixed in test tubes. The solutions were incubated at 37° C. for 30 min. The reaction was stopped by trichloroacetic acid (17% w/v) (Table 1) and the % scavenging activity of the tested compounds for hydroxyl radicals was given.
3.2. Competition of QNs with DMSO for hydroxyl radicals. Among the ROS, the hydroxyl (·OH) free radical is possibly the most toxic, as it easily reacts with biological important molecules such as DNA, lipids or carbohydrates. Polyunsaturated fatty acids are found in high concentrations in the CNS, and are particularly vulnerable to free radicals attack. Thus, we tried to test the ability of our compound to scavenge hydroxyl radicals. […] Antioxidants with lipophilic character are needed to act as radical scavengers or as chain-breaking antioxidants in biological membranes.

[6] = ABTS radical cation decolorization assay; format: biochemical; settings: tested at 100 μM
Procedure: ABTS^⋅+-decolorization assay in ethanolic solution for antioxidant activity.^32,35 ABTS is dissolved in water to a 2 mM concentration. ABTS radical cation (ABTS^⋅+) is produced by reacting the ABTS stock solution with 0.17 mM potassium persulfate in phosphate buffer (pH 7.4, 20 mM) and allowing the mixture to stand in the dark at room temperature for 12-16 h before use. For steady state measurements, […] ABTS^⋅+ was used. For the present study, the […] ABTS^⋅ solution (200 μL) was diluted with ethanol (790 μL) to an absorbance of 0.70 at 734 nm, equilibrated at room temperature, mixed with 10 μL of the tested compounds (stock solutions 10 mM) and the absorbance reading was taken at room temperature 1 min after the initial mixing. Trolox was used as a standard.
3.4. ABTS^⋅+ antioxidant activity of QNs. The ABTS^⋅+ radical cation, derived from the oxidation of 2,2′-azino-bis(3-ethylbenzothiazoline-6-sulphonic acid) (ABTS) by potassium persulfate, is a green-blue stable chromophore, which can be analyzed in the course of a decolorization assay. The addition of electron-donor antioxidants leads to ABTS^⋅+ reduction. The chemistry taking place involves the direct generation of the ABTS^⋅+ with no involvement of an intermediary radical. […] Again, and as shown, QN23 presented limited activity beside with 19, although the others nitrones had no activity (Table 3).

`Cc1ccc2c(c1)cc(/C=[N+](\[O-])Cc1ccccc1)c(Cl)[n+]2[O-]` [Compound 29, (Z)—N-Benzyl-1-(2-chloro-6-methyl-1-oxidoquinolin-3-yl)methanimine oxide] gave a viability at 0.3 µM [1] of 8.28 ± 0.51%, a viability at 1 µM [1] of under 0% and a viability at 10 µM [1] of under 0%. It also gave a viability at 100 µM [1] of under 0% and a melting point of 163 to 165 °C.

In the case of `Cc1ccc2c(c1)cc(/C=[N+](\[O-])C(C)(C)C)c(Cl)[n+]2[O-]` [Compound 30, (Z)—N-tert-Butyl-1-(2-chloro-6-methyl-1-oxidoquinolin-3-yl)methanimine oxide], the viability at 0.3 µM [1] is reported as 13 ± 0.47%, the viability at 1 µM [1] is reported as 37.5 ± 1.94% and the viability at 10 µM [1] is reported as under 0%. It also gave a viability at 100 µM [1] of under 0% and a melting point of 211 to 214 °C.

For `COc1ccc2c(c1)c(CC(=O)O)c(C)n2C(=O)c1ccc(Cl)cc1` [Indomethacin, indomethacin, reference compound], the ICPE % [2] was 47 ± 1.0 %.

For `CC(Cc1ccc(O)c(O)c1)C(C)Cc1ccc(O)c(O)c1` (stereo not shown) [NDGA, nordihydroguaiaretic acid, reference compound], the “DPPH (%)” value [3] was 93%.

For `Cc1c(C)c2c(c(C)c1O)CCC(C)(C(=O)O)O2` (stereo not shown) [Trolox, reference compound], the “ILPO (%) / AAPH (%)” value [4] was 63% and 88%, the “ILPO (%) / AAPH (%)” value ([4]; listed as trolox) was 88% and the “*OH (%)” value [5] was 73%. For the same compound, the “ABTS*+ (%)” value [6] was 91%.
